Read-outs that look alike come from different tables or passages of the source.
What was measured:
Type in all cases: biochemical
[1] = target: HL cytosol sulfotransferase (Homo sapiens, UniProt P50225); assay: Kinetics of 3-OH-BaP sulfonation by human liver cytosol (fluorimetric assay of BaP-3-SO4 formation); conditions: HL cytosol, 0.1 μM 3-OH-BaP, varying PAPS, mean ± SD n = 3
Description: F.P. Guengerich (Vanderbilt University) kindly donated the samples of human liver, which were procured from organ donors ([Guengerich 1995]). We prepared liver cytosolic fractions from four livers by standard methods and stored aliquots at −80°C until use ([Wang et al. 2004]). We used three or four of these cytosol fractions in each experiment.
(§1) We determined SULT activity with 3-OH-BaP as substrate by a fluorimetric assay of BaP-3-SO4 product formation, as described previously ([Wang et al. 2004]). […] Duplicate tubes were prepared for each incubation condition. We examined the kinetics of sulfonation in three liver cytosol fractions by systematically varying the concentration of 3-OH-BaP or PAPS. When the variable substrate was 3-OH-BaP, we used 12 concentrations in the range from 0.035 to 2.00 μM, and the concentration of PAPS was kept constant at 10 μM. When we varied PAPS, we used 7 concentrations from 0.157 to 10.0 μM and kept the concentration of 3-OH-BaP constant at 0.100 μM.
(§2) We calculated the enzyme kinetic parameters from studies with variable concentrations of 3-OH-BaP using nonlinear regression analysis and GraphPad 4.0 software (GraphPad Software, San Diego, CA). We selected the built-in Michaelis-Menten equation for most analyses. Where we found evidence of 3-OH-BaP substrate inhibition, we fit the data into an equation derived from a two-substrate model ([Zhang et al. 1998]): […]
(§3) This equation denoted the constant for binding of the first substrate (S) molecule as Km and the second substrate molecule as Ki. V1 is the maximum rate for the noninhibitory substrate concentration range, and V2 is the minimum rate in the inhibitory substrate concentration range

SULT1A1*2 [2] = target: T1, SULT1A1*2 (Homo sapiens, UniProt P50225, R213H); assay: Kinetics of 3-OH-BaP sulfonation by expressed SULT1A1*2; conditions: expressed SULT1A1*2, 0.1 μM 3-OH-BaP, varying PAPS
T1 construct: purchased PanVera (Madison, WI); host or cells: Sf-9
T1 sequence (P50225 whole entry R213H): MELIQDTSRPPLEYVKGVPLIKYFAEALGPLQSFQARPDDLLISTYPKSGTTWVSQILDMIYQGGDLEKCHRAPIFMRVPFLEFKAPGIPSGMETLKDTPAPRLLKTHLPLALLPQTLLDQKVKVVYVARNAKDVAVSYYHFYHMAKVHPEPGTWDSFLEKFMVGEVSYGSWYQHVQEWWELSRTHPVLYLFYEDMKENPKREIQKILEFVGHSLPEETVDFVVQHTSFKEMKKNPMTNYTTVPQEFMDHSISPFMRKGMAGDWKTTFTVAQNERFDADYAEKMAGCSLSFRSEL
From the text: (§4) The expression of human SULT1A1*1, SULT1A3, SULT1B1, and SULT1E1 in Escherichia coli has been described previously ([Dajani et al. 1998]; [Wang et al. 1998]). We grew E. coli cells containing the respective sulfotransferase genes as described previously ([Falany et al. 1990], [1994]), and prepared 100,000g supernatant fractions for use in inhibition studies and for partial purification of the SULT enzymes. We purchased expressed SULT1A1*2 cytosolic extract from PanVera (Madison, WI) and used it as supplied.
as §1
We determined the kinetic parameters for 3-OH-BaP sulfonation by partially purified preparations of the cDNA-expressed SULT isozymes under incubation conditions similar to those used for liver cytosol. For SULT1A1*1 and -1A1*2, we used seven substrate concentrations in the range from 5 to 100 nM; for SULT1E1 we used […] 3-OH-BaP concentrations from 15.6 to 1,000 nM; and for SULT1A3 and 1B1 we used seven concentrations of 3-OH-BaP from 0.25 to 5.0 μM.
as §2, §3

SULT1A1*1 = target: T2, SULT1A1*1 (Homo sapiens, UniProt P50225); assay: Inhibition of 3-OH-BaP sulfotransferase activity by OH-PCBs with cDNA-expressed SULT1A1*1; conditions: for IC50: mean of duplicates
T2 construct: made in house; host or cells: Escherichia coli
From the text: as §4, §1
(§5) For each OH-PCB, we examined the concentration dependence of inhibition with three liver cytosol fractions, as well as with cytosol fractions from the E. coli expressing SULT1A1*1, SULT1A3, SULT1B1, and SULT1E1, and the purchased Sf-9 cytosol fraction (PanVera, Madison, WI) containing SULT1A1*2. For studies with HL cytosol, SULT1A1*1, and SULT1E1, we examined two concentrations of 3-OH-BaP, 0.1 μM and 1.0 μM.
(§6) We calculated the effects of OH-PCBs on 3-OH-BaP SULT activity as percentage inhibition compared with the controls without an inhibitor. We obtained IC50 values by fitting log OH-PCB concentration and percent control activity to a sigmoidal curve. We examined the relationships between IC50 and physicochemical properties of the OH-PCBs by linear correlation analysis. We calculated the inhibitory constant (Ki) from the kinetic studies with 4′-OH-CB112 by means of Dixon plots and plots of Km/Vmax against inhibitor concentration ([Cornish-Bowden 1995]).

SULT1A1*2 [3] = target: T1, SULT1A1*2; assay: Inhibition of 3-OH-BaP sulfotransferase activity by OH-PCBs with expressed SULT1A1*2
From the text: as §4, §1, §5, §6

SULT1E1 = target: T3, SULT1E1 (Homo sapiens, UniProt P49888); assay: Inhibition of 3-OH-BaP sulfotransferase activity by OH-PCBs with cDNA-expressed SULT1E1; conditions: for IC50: mean of duplicates
T3 construct: made in house; host or cells: Escherichia coli
T3 sequence (P49888 1-294): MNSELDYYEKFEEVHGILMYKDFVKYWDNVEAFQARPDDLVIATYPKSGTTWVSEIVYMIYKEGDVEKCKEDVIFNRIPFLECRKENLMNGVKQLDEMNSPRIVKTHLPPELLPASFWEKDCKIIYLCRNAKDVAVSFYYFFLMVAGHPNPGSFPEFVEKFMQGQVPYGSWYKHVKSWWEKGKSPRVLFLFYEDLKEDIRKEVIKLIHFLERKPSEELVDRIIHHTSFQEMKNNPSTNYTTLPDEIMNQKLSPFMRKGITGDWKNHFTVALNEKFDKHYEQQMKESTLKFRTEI
From the text: as §4, §1, §5, §6

SULT1B1 = target: T4, SULT1B1 (Homo sapiens, UniProt O43704); assay: Inhibition of 3-OH-BaP sulfotransferase activity by OH-PCBs with cDNA-expressed SULT1B1; conditions: for IC50: mean of duplicates
T4 construct: made in house; host or cells: Escherichia coli
T4 sequence (O43704 whole entry): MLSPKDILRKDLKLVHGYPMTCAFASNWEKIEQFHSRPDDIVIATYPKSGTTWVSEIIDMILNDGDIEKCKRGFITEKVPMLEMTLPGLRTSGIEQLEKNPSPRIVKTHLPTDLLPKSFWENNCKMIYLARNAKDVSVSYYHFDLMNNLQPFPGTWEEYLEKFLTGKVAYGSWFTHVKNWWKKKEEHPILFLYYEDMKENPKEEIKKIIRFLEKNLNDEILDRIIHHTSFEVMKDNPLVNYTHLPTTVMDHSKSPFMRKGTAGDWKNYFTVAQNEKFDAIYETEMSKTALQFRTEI
From the text: as §4, §1, §5, §6

SULT1A3 = target: T5, SULT1A3 (Homo sapiens, UniProt P0DMM9); assay: Inhibition of 3-OH-BaP sulfotransferase activity by 50 μM OH-PCBs with cDNA-expressed SULT1A3; conditions: for inhibition at 50 µM: read-out: inhibition of 3-OH-BaP sulfonation by SULT1A3
T5 construct: made in house; host or cells: Escherichia coli
T5 sequence (P0DMM9 whole entry): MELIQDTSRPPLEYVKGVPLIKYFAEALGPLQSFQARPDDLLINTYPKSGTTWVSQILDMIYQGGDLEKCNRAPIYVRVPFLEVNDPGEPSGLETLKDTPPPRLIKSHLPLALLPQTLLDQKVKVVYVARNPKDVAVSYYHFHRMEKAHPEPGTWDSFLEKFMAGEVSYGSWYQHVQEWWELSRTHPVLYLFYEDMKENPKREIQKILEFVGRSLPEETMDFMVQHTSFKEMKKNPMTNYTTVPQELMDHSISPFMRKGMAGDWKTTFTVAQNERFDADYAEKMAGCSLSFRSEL
From the text: as §4, §1, §5, §6

[4] = target: HL cytosol 3-OH-BaP sulfotransferase (Homo sapiens, UniProt P50225); assay: Kinetics of 3-OH-BaP sulfotransferase inhibition by 4′-OH-CB112 in HL cytosol
HL cytosol 3-OH-BaP sulfotransferase, sequence (P50225 whole entry): as the sequence (P50225 whole entry R213H) above, with H213R counted along it
Description: To study the type of inhibition produced by OH-PCBs, we used 4′-OH-CB112 (B5) as a model inhibitor. We prepared four sets of assay tubes containing HL cytosol and varying amounts of 3-OH-BaP from 35 to 150 nM: one set (control) contained no 4′-OH-CB112; the other sets contained 0.25 μM, 0.5 μM, or 1.0 μM 4′-OH-CB112.
as §6

[5] = IC50 SULT1A1*1, 0.1 μM 3-OH-BaP
[6] = IC50 SULT1A1*1, 1.0 μM 3-OH-BaP
[7] = 0.1 μM 3-OH-BaP, read-out: IC50 SULT1A1*1
[8] = 1.0 μM 3-OH-BaP, read-out: IC50 SULT1A1*1
[9] = 0.1 μM 3-OH-BaP, mean of duplicates, read-out: IC50 SULT1A1*2
[10] = 0.1 μM 3-OH-BaP, read-out: IC50 SULT1E1
[11] = 1.0 μM 3-OH-BaP, read-out: IC50 SULT1E1
[12] = 1.0 μM 3-OH-BaP, read-out: IC50 SULT1B1

HL cytosol sulfotransferase, sequence (P50225 whole entry): as the sequence (P50225 whole entry R213H) above, with H213R counted along it

| Structure (SMILES) | IC50 (SULT1A1*1; [7]) [µM] | IC50 (SULT1A1*1; [8]) [µM] | IC50 (SULT1A1*2 [3]; [9]) [nM] | IC50 (SULT1E1; [10]) [nM] | IC50 (SULT1E1; [11]) [nM] | IC50 (SULT1B1; [12]) [µM] | inhibition of 3-OH-BaP sulfonation by SULT1A3 (SULT1A3; 50 μM OH-PCB, 1.0 μM 3-OH-BaP) | inhibition at 50 µM (SULT1A3; 50 μM OH-PCB, 1.0 μM 3-OH-BaP) [%] | further results |
| --- | --- | --- | --- | --- | --- | --- | --- | --- | --- |
| Nc1ncnc2c1ncn2[C@@H]1O[C@H](COP(=O)(O)OS(=O)(=O)O)[C@@H](OP(=O)(O)O)[C@H]1O [PAPS, 3′-phosphoadenosine 5′-phosphosulfate] |  |  |  |  |  |  |  |  | Vmax (varying PAPS) [1]: 48 ± 2 pmol/min/mg protein; Km ([1]; read-out: apparent Km for PAPS): 560 ± 90 nM; Vmax (varying PAPS) (SULT1A1*2 [2]): 684 pmol/min/mg protein; Km (SULT1A1*2 [2]; read-out: apparent Km for PAPS): 320 nM |
| Oc1c(Cl)cc(-c2ccc(Cl)c(Cl)c2)cc1Cl [Compound C1, 4′-OH-CB79] |  |  |  |  |  |  |  |  | IC50 (SULT1A1*1; [5]): 6.65 µM; IC50 (SULT1A1*1; [6]): 59.8 µM; IC50 (SULT1A1*2 [3]): 4570 nM; IC50 (SULT1E1; IC50 SULT1E1, 0.1 μM 3-OH-BaP): 500 nM; IC50 (SULT1E1; IC50 SULT1E1, 1.0 μM 3-OH-BaP): 1320 nM; IC50 (SULT1B1; IC50 SULT1B1, 1.0 μM 3-OH-BaP): 39.9 µM; inhibition at 50 µM (SULT1A3): 2 to 20% |
| Oc1c(Cl)cc(-c2cc(Cl)ccc2Cl)cc1Cl [Compound C6, 4′-OH-CB72] | 2.21 | 33.8 | 2030 | 570 | 2280 | > 100 | did not inhibit |  |  |
| Oc1c(Cl)cc(-c2cc(Cl)c(Cl)c(Cl)c2Cl)cc1Cl [Compound C4, 4′-OH-CB159] | 2.16 | 34.1 | 1670 | 1300 | 3550 | > 100 |  | 2 to 20 |  |
| Oc1ccc(-c2c(Cl)c(Cl)cc(Cl)c2Cl)cc1Cl [Compound B5, 4′-OH-CB112] | 1.17 | 42.5 | 1480 | 5350 | 23200 | 86.5 | did not inhibit |  | type of inhibition ([4]; 3-OH-BaP 35 to 150 nM): noncompetitive; Vmax (3-OH-BaP sulfotransferase activity) ([4]; in presence of 0.25 μM B5, two livers): 56.3 ± 6.0 B pmol/min/mg protein; Vmax (3-OH-BaP sulfotransferase activity) ([4]; in presence of 0.5 μM B5, n = 3): 41.2 ± 3.3 C pmol/min/mg protein; Vmax (3-OH-BaP sulfotransferase activity) ([4]; in presence of 1.0 μM B5, n = 3): 33.3 ± 3.2 D pmol/min/mg protein |
| Oc1c(Cl)cc(-c2c(Cl)cc(Cl)cc2Cl)cc1Cl [Compound C3, 4′-OH-CB121] |  |  |  |  |  |  | did not inhibit |  | IC50 (SULT1A1*1; [5]): 8.15 µM; IC50 (SULT1A1*1; [6]): 99.5 µM; IC50 (SULT1A1*2 [3]): 6520 nM; IC50 (SULT1E1; IC50 SULT1E1, 0.1 μM 3-OH-BaP): 7980 nM; IC50 (SULT1E1; IC50 SULT1E1, 1.0 μM 3-OH-BaP): 16700 nM; IC50 (SULT1B1; IC50 SULT1B1, 1.0 μM 3-OH-BaP): > 100 µM |
| Oc1ccc(-c2cc(Cl)c(Cl)c(Cl)c2Cl)cc1Cl [Compound B4, 4′-OH-CB106] |  |  |  |  |  |  | did not inhibit |  | IC50 (SULT1A1*1; [5]): 1.07 µM; IC50 (SULT1A1*1; [6]): 10.3 µM; IC50 (SULT1A1*2 [3]): 1060 nM; IC50 (SULT1E1; IC50 SULT1E1, 0.1 μM 3-OH-BaP): 1180 nM; IC50 (SULT1E1; IC50 SULT1E1, 1.0 μM 3-OH-BaP): 6970 nM; IC50 (SULT1B1; IC50 SULT1B1, 1.0 μM 3-OH-BaP): 17.4 µM |
| Oc1ccc(-c2c(Cl)cc(Cl)cc2Cl)cc1Cl [Compound B3, 4′-OH-CB69] | 1.16 | 67.5 | 1310 | 4870 | 30800 | > 100 | did not inhibit |  |  |
| Oc1c(Cl)cc(-c2c(Cl)c(Cl)cc(Cl)c2Cl)cc1Cl [Compound C5, 4′-OH-CB165] | 2.58 | 54.8 | 2590 | 6960 | 21400 | > 100 | did not inhibit |  |  |
| Oc1ccc(-c2cc(Cl)cc(Cl)c2)cc1Cl [Compound B2, 4′-OH-CB36] | 1.31 | 28 | 940 | 450 | 1890 | 37 |  | 2 to 20 |  |
| Oc1ccc(Cl)cc1-c1ccc(Cl)c(Cl)c1 [Compound A1, 6′-OH-CB35] | > 100 | > 100 | > 100000 | ~100000 | > 100000 | 4.72 | did not inhibit |  | inhibitory potency in words, SULT1A1*1 (SULT1A1*1; both substrate concentrations (0.1 and 1.0 μM 3-OH-BaP)): poor inhibitor; inhibitory potency in words, SULT1E1 (SULT1E1; either substrate concentration (0.1 and 1.0 μM 3-OH-BaP)): poor inhibitor; inhibitory potency in words, SULT1B1 (SULT1B1; 1.0 μM 3-OH-BaP): fairly potent inhibitor |
| Oc1c(Cl)cc(-c2cccc(Cl)c2)cc1Cl [Compound C2, 4-OH-CB36] | 3.09 | > 100 | 3050 | 410 | 1650 | 47.5 |  | 43 |  |
| Oc1ccc(-c2ccc(Cl)c(Cl)c2)cc1Cl [Compound B1, 4′-OH-CB35] | 0.77 | 25.2 | 550 | 240 | 1020 | 16.8 |  | 2 to 20 |  |
